Source: PubChem BioAssay AID1963836 (Molecular Pharmacology Branch, DTP, NCI, 2024)
Values joined by “and” are separate entries in the source; they are usually repeats but may differ in a detail not shown here. Equal values may be shown once.

System: 857933-349-R-J2-PDC complex spheroid viability
Assay: Anticancer human tumor 857933-349-R-J2-PDC patient-derived colon adenocarcinoma cell line growth inhibition [POLQ]
Conditions: for viability, T/C: stronger effect = lower value; for IC50: curve of compound
Protocol: Multicellular complex tumor spheroid response to Polymerase (POL) inhibitors (novobiocin, ART-558, RP6685) in combination with a variety of drugs and investigational agents in selected tumor cell lines
The POL inhibitors (novobiocin, ART-558, and RP6685) were evaluated both individually and in combination with standard of care and investigational anticancer small molecules within a complex spheroid model of solid tumors. . Complex spheroids include a stromal component modeled by human endothelial cells (HUVEC) and fibroblasts modeled by human mesenchymal stem cells (MSCs). The concentration ranges selected for each drug and investigational agent were based upon clinically achievable concentrations if the clinical Cmax of the agent was known.
Compounds. The drugs and investigational agents: novobiocin (NSC847541), ART-558 (NSC835418), RP-6685 (NSC848927), peposertib (NSC802822), ceralasertib (NSC780249), elimusertib (NSC800525), camonsertib (NSC841442), AZD-1390 (NSC803789), olaparib (NSC753686), talazoparib (NSC767125), rucaparib (NSC756644), sotorasib (NSC818433), MRTX-1133 (NSC836407), SN-38 (NSC673596), topotecan (NSC609699), epotoside (NSC141540), doxorubicin (NSC123127), gemcitabine (NSC613327), 5-fluorouracil (NSC19893), paclitaxel (NSC125973), vemurafenib (NSC761431), MSA-2 (NSC828583), SN-011 (NSC837082), adavosertib (NSC754352), prexasertib (NSC758257), carboplatin (NSC241240) and oxaliplatin (NSC266046), were obtained from the National Cancer Institute (NCI) Developmental Therapeutics Program Chemical Repository (21). The FDA-approved anticancer drug set is available from the Developmental Therapeutics Program at https://dtp.cancer.gov/organization/dscb/obtaining/. […] The stock solutions were prepared in dimethyl sulfoxide (DMSO, Sigma-Aldrich, St. Louis, MO, cat. D2650), except for the platinum compounds which were prepared in saline (Quality Biological, Gaithersburg, MD, cat. 114-055-101), at 800-fold the tested concentration and stored at -70 degrees C prior to their use. All drugs and investigational agents were tested over a range starting from a high concentration at or near the clinical Cmax and decreasing in half-log increments. If the clinical Cmax for an agent had not been determined, the highest concentration tested was 10 microM, except for SN-38, which was tested at a high concentration of 1 microM.
Cell Culture. All cells were maintained in an incubator at 37 degrees C and 5% CO2 with 95% humidity. The PDC lines were cultured according to standard operating procedures established by the NCI PDMR (https://pdmr.cancer.gov). Table 3 of the manuscript, lists the cell lines along with the number of the three cell types plated to form the mct-spheroids and media for tumor cell growth. After thawing, all PDC lines, except 997537-175-T-J1-PDC and 415267-285-R-J2-PDC, were cultured in Matrigel-coated flasks prepared with a working solution of 1X Ham's F-12 nutrient mix, without supplementation (Thermo Fisher Scientific, cat. 11765054), 100 U/mL penicillin-streptomycin (Thermo Fisher Scientific, cat. 15140122), and 2.5% Matrigel (Corning Inc., Corning, NY, cat. 354248) for the first three passages. The two PDC lines 997537-175-T-J1-PDC and 415267-285-R-J2-PDC were cultured on uncoated flasks. The 857933-349-R-J2-PDC line was cultured in 6C/Colon 1B media containing advanced DMEM/F-12 (Thermo Fisher Scientific, cat. 12634028), 10 mM HEPES (Thermo Fisher Scientific, cat. 15630080), 1X GlutaMAX supplement (Thermo Fisher Scientific, cat. 35050061), 0.1 mg/mL primocin (InvivoGen, San Diego, CA, cat. ant-pm-2), 10% defined fetal bovine serum, heat inactivated (HyClone Laboratories Inc., Logan, UT, cat. SH30070.03HI), 50% L-WRN conditioned media (ATCC, cat. CRL-3276), 1.25 mM N-Acetyl-L-cysteine (Sigma-Aldrich, cat. A9165), 10 mM nicotinamide (Sigma-Aldrich, cat. N0636), 1X B-27 supplement (Thermo Fisher Scientific, cat. 17504044), 1X N-2 supplement (Thermo Fisher Scientific, cat. […]
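Note: spheroids exposed to compounds for seven days before readout.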

| Compound | viability, T/C (compound 0.0316 µM) | viability, T/C (compound 0.1 µM) | viability, T/C (compound 0.316 µM) | viability, T/C (compound 1 µM) | viability, T/C (compound 3.16 µM) | viability, T/C (compound 10 µM) | IC50 | viability, T/C (compound 0.00316 µM) | viability, T/C (compound 0.01 µM) | viability, T/C (compound 0.00949 µM) | viability, T/C (compound 0.03 µM) | viability, T/C (compound 0.0949 µM) | viability, T/C (compound 0.3 µM) | viability, T/C (compound 0.949 µM) | viability, T/C (compound 3 µM) | viability, T/C (compound 0.000316 µM) | viability, T/C (compound 0.001 µM) |
| --- | --- | --- | --- | --- | --- | --- | --- | --- | --- | --- | --- | --- | --- | --- | --- | --- | --- |
| C#Cc1c(F)ccc2cc(O)cc(-c3ncc4c(N5CC6CCC(C5)N6)nc(OCC56CCCN5CC(F)C6)nc4c3F)c12 (stereo unspecified) | 85.3% and 89.3% and 102% | 101% and 91.6% and 82.3% | 95.7% and 95.3% and 81.3% | 87.1% and 81.7% and 96.6% | 99.9% and 71.5% and 70.8% | 76.4% and 80.9% and 93.4% | > 10000 nM | – | – | – | – | – | – | – | – | – | – |
| C=CC(=O)N1CCN(c2nc(=O)n(-c3c(C)ccnc3C(C)C)c3nc(-c4c(O)cccc4F)c(F)cc23)C(C)C1 (stereo unspecified) | 82% and 96.3% and 96.5% | 103% and 96.2% and 101% | 97.5% and 113% and 80.8% | 101% and 99.1% and 91.3% | 94.3% and 103% and 92.1% | 117% and 103% and 94.6% | > 10000 nM | – | – | – | – | – | – | – | – | – | – |
| C=CCn1c(=O)c2cnc(Nc3ccc(N4CCN(C)CC4)cc3)nc2n1-c1cccc(C(C)(C)O)n1 | 84.6% and 98.7% and 93.5% | 94.9% and 107% and 102% | 109% and 102% (2×) | 66.4% and 73.5% and 82.9% | – | – | > 1000 nM | 99.5% and 94.6% and 95.5% | 72.9% and 104% and 93.5% | – | – | – | – | – | – | – | – |
| CC(=O)O[C@H]1C(=O)[C@@]2(C)[C@H]([C@H](OC(=O)c3ccccc3)[C@]3(O)C[C@H](OC(=O)[C@H](O)[C@@H](NC(=O)c4ccccc4)c4ccccc4)C(C)=C1C3(C)C)[C@]1(OC(C)=O)CO[C@@H]1C[C@@H]2O | – | – | – | – | – | – | < 9.49 nM and 9.59 nM and 15 nM | – | – | 40.3% and 50.5% and 65.1% | 15.2% and 21.8% and 27.1% | 9.46% and 11.5% and 16.2% | 12.5% and 11.3% and 21.3% | 11.2% and 14.4% and 17% | 12.1% and 16.1% and 21.9% | – | – |
| CC(C)n1c(=O)n(C)c2cnc3cc(F)c(-c4ccc(OCCCN5CCCCC5)nc4)cc3c21 | 85.8% and 92.4% and 99% | 84.1% and 96.4% and 101% | 92.8% and 101% and 115% | 91.6% and 100% and 106% | 94.7% and 113% and 97.5% | 63.6% and 98.3% and 110% | > 10000 nM | – | – | – | – | – | – | – | – | – | – |
| CC1COCCN1c1cc(-c2ccnn2C)c2ccnc(-c3ccn[nH]3)c2n1 (stereo unspecified) | 70% and 80.3% and 83.9% | 59.9% and 64.2% and 58.6% | 40.7% and 40% and 54.9% | 41.7% and 35.7% and 48.2% | 41.2% and 43.7% and 44.5% | 44.9% and 44.1% and 48% | 190 nM and 202 nM and 558 nM | – | – | – | – | – | – | – | – | – | – |
| CC1COCCN1c1cc(C2(O)CC3CCC(C2)O3)c2cnn(-c3ccn[nH]3)c2n1 (stereo unspecified) | 62.7% and 58.8% and 79.7% | 51.6% and 50.3% and 63.5% | 52.9% and 47% and 57.7% | 44.2% and 42.2% and 45.6% | 39.6% and 45.2% and 46.2% | 45.9% and 49.6% and 45.8% | 232 nM and 94.2 nM and 805 nM | – | – | – | – | – | – | – | – | – | – |
| CC1COCCN1c1cc(C2(S(C)(=N)=O)CC2)nc(-c2ccnc3[nH]ccc23)n1 (stereo unspecified) | 87.6% and 102% and 103% | 88.4% and 105% and 117% | 101% (2×) and 81.7% | 77.9% and 69% and 76.1% | 59.6% and 68.9% and 62.7% | 33.2% and 55.2% and 42.2% | 4650 nM and > 10000 nM and 6260 nM | – | – | – | – | – | – | – | – | – | – |
| CCCS(=O)(=O)Nc1ccc(F)c(C(=O)c2c[nH]c3ncc(-c4ccc(Cl)cc4)cc23)c1F | 87.2% and 97.5% and 76% | 91% and 92.8% and 98.1% | 80.8% and 102% and 99.7% | 82.6% and 101% and 102% | 97.3% and 93.2% and 86% | 32.9% and 13.3% and 13.9% | 6990 nM and 5900 nM and 5640 nM | – | – | – | – | – | – | – | – | – | – |
| CC[C@@]1(O)C(=O)OCc2c1cc1n(c2=O)Cc2cc3c(CN(C)C)c(O)ccc3nc2-1 | 66.7% and 63.9% and 53.9% | 44.2% and 46.5% and 45.7% | – | – | – | – | 76.4 nM and 80.2 nM and 66.3 nM | 79.1% and 91.7% and 88.3% | 71.2% and 80% and 87.5% | – | – | – | – | – | – | 98.5% and 99.4% and 113% | 115% and 95.2% and 99.9% |
| CCc1c2c(nc3ccc(O)cc13)-c1cc3c(c(=O)n1C2)COC(=O)[C@]3(O)CC | 35.1% and 21.3% and 31.4% | 22.3% and 16.2% and 23.3% | 17.8% and 10.6% and 15.8% | 4.53% and 2.45% and 5.61% | – | – | 15.6 nM and 13.6 nM and 16.5 nM | 76.9% and 53.6% and 65.9% | 60.1% and 67.4% and 65.8% | – | – | – | – | – | – | – | – |
| CCc1cc2c(N3CCc4c(cc(Cn5ccnc5)cc4-c4cn(C)nc4C(F)(F)F)C3=O)cc(C)nc2c(OC)n1 | 87% and 98.2% and 83.5% | 84.3% and 88% and 82% | 97.7% and 105% and 92.7% | 61.2% and 84.8% and 84% | 65% and 78.1% and 61.3% | 54.8% and 53.6% and 58.1% | > 10000 nM | – | – | – | – | – | – | – | – | – | – |
| CCc1cc2c(N3CCc4c(cc(Cn5ccnc5)cc4-c4cn(C)nc4C(F)(F)F)C3=O)ccnc2c(OC)n1 | 78.8% and 89.8% and 94.1% | 83.8% and 87.8% and 80.9% | 73.6% and 90% and 98.3% | 73.4% and 84.9% and 82.2% | 62.2% and 72.7% and 78% | 58.9% and 65.9% and 59% | > 10000 nM | – | – | – | – | – | – | – | – | – | – |
